The record followed here is paper PMC5697638, “Identification of a Potent Phosphoinositide 3‐Kinase Pan Inhibitor Displaying a Strategic Carboxylic Acid Group and Development of Its Prodrugs” (Chemmedchem, 2017).

For data set [1], the target named is T1, hPI3K‐c2γ (PIK3C2G) (Homo sapiens, UniProt O75747).
T1 construct: purchased ProQinase, Germany 1207‐0000‐1
T1 sequence (O75747 1-1486): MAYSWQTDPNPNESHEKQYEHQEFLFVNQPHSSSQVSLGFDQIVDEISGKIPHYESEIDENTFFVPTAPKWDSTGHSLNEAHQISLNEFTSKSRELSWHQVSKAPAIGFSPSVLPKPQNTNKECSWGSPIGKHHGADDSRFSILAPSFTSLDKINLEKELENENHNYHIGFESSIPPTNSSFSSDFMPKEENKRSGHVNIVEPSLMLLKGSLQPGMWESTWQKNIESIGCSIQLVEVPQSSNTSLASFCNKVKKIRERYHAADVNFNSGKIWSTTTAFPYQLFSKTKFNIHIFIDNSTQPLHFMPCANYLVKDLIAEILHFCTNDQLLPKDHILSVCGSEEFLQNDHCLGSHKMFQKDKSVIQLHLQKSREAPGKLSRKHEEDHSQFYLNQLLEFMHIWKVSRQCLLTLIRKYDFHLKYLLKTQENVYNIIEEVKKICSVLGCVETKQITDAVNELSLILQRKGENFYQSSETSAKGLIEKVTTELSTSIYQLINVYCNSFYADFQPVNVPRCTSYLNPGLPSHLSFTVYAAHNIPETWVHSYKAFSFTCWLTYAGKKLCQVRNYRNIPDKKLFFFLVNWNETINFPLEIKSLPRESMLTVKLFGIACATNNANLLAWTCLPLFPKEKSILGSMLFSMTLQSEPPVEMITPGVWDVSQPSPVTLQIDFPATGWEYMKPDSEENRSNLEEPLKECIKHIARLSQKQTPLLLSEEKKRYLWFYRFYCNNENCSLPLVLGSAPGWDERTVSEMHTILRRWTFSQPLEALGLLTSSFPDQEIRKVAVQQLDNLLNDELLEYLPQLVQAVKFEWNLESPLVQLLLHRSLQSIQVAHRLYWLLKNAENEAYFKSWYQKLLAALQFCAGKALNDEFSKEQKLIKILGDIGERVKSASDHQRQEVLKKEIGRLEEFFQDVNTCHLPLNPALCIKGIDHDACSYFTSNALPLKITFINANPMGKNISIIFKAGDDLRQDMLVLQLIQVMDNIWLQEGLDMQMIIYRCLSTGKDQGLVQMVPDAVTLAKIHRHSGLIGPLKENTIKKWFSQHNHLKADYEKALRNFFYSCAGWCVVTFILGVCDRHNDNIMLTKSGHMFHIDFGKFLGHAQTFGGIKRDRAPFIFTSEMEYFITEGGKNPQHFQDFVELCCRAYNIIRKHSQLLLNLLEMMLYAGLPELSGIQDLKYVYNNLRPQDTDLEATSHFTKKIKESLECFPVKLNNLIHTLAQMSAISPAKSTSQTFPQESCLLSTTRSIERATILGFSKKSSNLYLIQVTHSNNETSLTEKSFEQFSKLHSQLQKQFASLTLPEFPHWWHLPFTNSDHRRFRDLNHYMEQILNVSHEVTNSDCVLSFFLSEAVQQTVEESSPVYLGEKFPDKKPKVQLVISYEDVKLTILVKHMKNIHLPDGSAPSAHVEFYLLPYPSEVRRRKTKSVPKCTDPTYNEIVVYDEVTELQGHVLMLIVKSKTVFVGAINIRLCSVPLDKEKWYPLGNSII
Kind of data set: lipid kinase assay (ADP-Glo), PI3K-C2γ. The class given is biochemical. Conditions: Table 2; mean of at least three determinations, 95 % confidence intervals; read-out: IC50 PI3Kc2γ. The procedure: In vitro selection, lipid kinase assay: To determine the inhibitory activity of the new molecular entities on PI3K enzyme, a lipid kinase assay was performed: recombinant proteins (30 ng), human PI3Kα (PIK3CA/PIK3R1, #1161‐1165‐1 ProQinase–Germany), hPI3Kβ (PIK3CB wt/PIK3R1, #1168‐1165‐1 ProQinase, Germany), hPI3Kγ (PIK3CG, #1163‐0000‐1 ProQinase, Germany), hPI3Kδ (PIK3CD/PIK3R1, #1162–1165‐1 ProQinase, Germany), hPI3K‐C2α (PIK3C2A, #14‐906 Merck Millipore_Merck KGaA, Germany), hPI3K‐C2β (PIK3C2B, #14‐907 Merck Millipore_Merck KGaA, Germany), hPI3K‐c2γ (PIK3C2G, #1207‐0000‐1 ProQinase, Germany), and hVps34 (PIK3C3, #1160‐0000‐1 ProQinase, Germany), were incubated in kinase buffer {12.5 μL; 20 mM Tris‐HCl pH 7.5, 10 mM MgCl2, 10 μM ATP, 0.05 mg mL^−1 BSA, 0.5 mM EDTA, 5 mM HEPES pH 7.5, for PI3Kα,PI3Kβ, PI3Kγ, PI3Kδ, PI3KC‐2α, and PI3KC‐2γ; 15 mM MnCl2, 5 mM EGTA, 100 μM ATP, 50 mM HEPES pH 7.5, 100 mM NaCl, and 0.03 % CHAPS for PI3K‐C2β and VPS34 {BSA=bovine serum albumin; EDTA=ethylenediaminetetraacetic acid; HEPES=4‐(2‐hydroxyethyl)‐1‐piperazineethanesulfonic acid; EGTA=ethylene glycol‐bis(2‐aminoethylether)‐N,N,N′,N′‐tetraacetic acid; CHAPS=3‐[(3‐cholamidopropyl)dimethylammonio]‐1‐propanesulfonate}. In the reaction, the ATP concentration used for different PI3Ks was defined on the basis of the Michaelis–Menten kinetics of each enzyme, provided by the supplier. […]

The nature of data set [2]: metabolic stability in rat liver microsomes (RLM). The data set is classed as in vitro ADME. Conditions: 50 μM substrate, 60 min.

Turning to `O=C(O)c1cccc(Cn2cc(-c3cccc4c(=O)cc(N5CCOCC5)[nH]c34)nn2)c1` [Compound 37, 3‐{[4‐(2‐Morpholino‐4‐oxo‐1,4‐dihydroquinolin‐8‐yl)‐1H‐1,2,3‐triazol‐1‐yl]methyl}benzoic acid], the IC50 in data set [1] was found to be 2.8 ± 0.7 µM. For `COC(=O)c1cccc(Cn2cc(-c3cccc4c(=O)cc(N5CCOCC5)[nH]c34)nn2)c1` [Compound 64, Methyl 3‐{[4‐(2‐morpholino‐4‐oxo‐1,4‐dihydroquinolin‐8‐yl)‐1H‐1,2,3‐triazol‐1‐yl]methyl}benzoate], the “% residual substrate, RLM (without NADPH)” value in data set [2] turned out to be 32%.

In general, IC50 refers to the concentration that inhibits the measured activity by half.
